“And” between values parts separate entries of the source, which are not always exact repeats. Equal values may be shown once. Read-outs that look alike come from different tables or passages of the source. Bounds are passed on as bounds.

The test system of series [1] is Xenotropic Murine Leukemia Virus (XMuLV). Format: cell-based.
For series [2] the following is noted: cited from earlier work.
A further series deals with XMuLV. The series can be described thus: Viral inactivation study with TRITON X-100 using 3 different antibodies.

Regarding `CCCCCCCCCCCC[N+](C)(C)[O-]` [LDAO, N,N-dimethyldodecylamine N-oxide], in series [1], the “Log Reduction Factor (120 min)” value is 4; the “Log Reduction Factor (LRF)” value is 3.14 and 3.07 and 3.08. Besides, the CMC in series [2] ([…]) was 1 to 2 mM.

Turning to `CCCCCCCCCCCC[N+](C)(C)CCCCCCCCCCC(=O)[O-]` [DDMAU, N-Dodecyl-N,N-(dimethylammonio)undecanoate], the CMC in series [2] ([…]) is on record as 0.13 mM.

Regarding `CCCCCCCCCCCC[N+](C)(C)CCCS(=O)(=O)[O-]` [Sulfobetaine-12, N-dodecyl-N,N-dimethyl-3-ammonio-1-propanesulfonate], the “Log Reduction Factor (120 min)” value in series [1] was 4.2.

In the case of `CCCCCCCCCCCCCC[N+](C)(C)CCCS(=O)(=O)[O-]` [Sulfobetaine-14, N-tetradecyl-N,N-dimethyl-3-ammonio-1-propanesulfonate], the “Log Reduction Factor (120 min)” value in series [1] is listed as 4.7.

Consider `C[C@H](CCC(=O)NCCC[N+](C)(C)CC(O)CS(=O)(=O)[O-])[C@H]1CC[C@H]2[C@@H]3[C@H](O)C[C@@H]4C[C@H](O)CC[C@]4(C)[C@H]3C[C@H](O)[C@]12C` (stereo partly shown) [CHAPSO, 3-([3-Cholamidopropyl]dimethylammonio)-2-hydroxy-1-propanesulfonate], for which the CMC in series [2] ([…]) is recorded as 8 mM.

Consider `CCCCCCCC[N+](C)(C)CCCS(=O)(=O)[O-]` [ZWITTERGENT 3-08, n-Octyl-N,N-dimethyl-3-ammonio-1-propanesulfonate], for which the CMC in series [2] ([…]) is on record as 330 mM.

Take TRITON X-100: the CMC in series [2] (at 25° C. in water) is given as 0.01-0.02 % w/w. In addition, the viral inactivation entry in the series on XMuLV (0.25-0.5× CMC (0.006% w/w), below the CMC) was “No viral inactivation”. In addition, in the series with XMuLV (1-2× CMC (0.02% w/w), ambient temperature, within 45 min), the XMuLV inactivation was greater than 4 log.

Take `CCCCCCCCCC[N+](C)(C)CCCS(=O)(=O)[O-]` [ZWITTERGENT 3-10, n-Decyl-N,N-dimethyl-3-ammonio-1-propanesulfonate]: the CMC in series [2] ([…]) is 25 to 40 mM.

As for `CCCCCCCCCCCCCCCC[N+](C)(C)CCCS(=O)(=O)[O-]` [Sulfobetaine-16, N-hexadecyl-N,N-dimethyl-3-ammonio-1-propanesulfonate], in series [1], the “Log Reduction Factor (120 min)” value turned out to be 4.2; the “Log Reduction Factor (LRF)” value is 3.16 and 3.15 and 3.14.

On to `CCCCCCCCCCCC[N+](C)(C)CC(=O)[O-]` [EMPIGEN BB, N,N-Dimethyl-N-dodecylglycine betaine], for which the CMC in series [2] ([…]) was 1.6 to 2.1 mM.

Take `C[C@H](CCC(=O)NCCC[N+](C)(C)CCCS(=O)(=O)[O-])[C@H]1CC[C@H]2[C@@H]3[C@H](O)C[C@@H]4C[C@H](O)CC[C@]4(C)[C@H]3C[C@H](O)[C@]12C` [CHAPS, 3-[(3-cholamidopropyl)dimethylammonio]-1-propanesulfonate]: the CMC in series [2] ([…]) is 6 to 10 mM.

Source of the values: patent publication US10702603B2 (priority 2012, dated 2020).
